Experimental findings from US20100009934A1, “BETA ADRENERGIC RECEPTOR AGONISTS FOR THE TREATMENT OF B-CELL PROLIFERATIVE DISORDERS” (CombinatoRx, Incorporated, priority 2008, published 2010) are described below.

One data set deals with MM.1S cells. The data set can be described thus: Annexin V/PI FACS assay of control MM.1S and cells cultured one month with salmeterol or salbutamol. Type of data set: cell-based, human. In general terms: Flow cytometry measures light scatter and fluorescence of single cells or particles in a stream.
Data set [1] relates to Human Multiple Myeloma Cells (MM.1S).
Data set [2] concerns Human Multiple Myeloma Cells (MM.1S) cultured in the presence of BAR agonist for one month. The data set is described as follows: Antiproliferative activity on MM.1S cultured one month in the presence of salmeterol or salbutamol. The class given is cell-based. As to conditions: Homo sapiens, MM1.S, […] dexamethasone; cells cultured one month in salmeterol (64 nM), Table 48; read-out: inhibition of proliferation. An excerpt: A recurrent problem in cancer therapy is that prolonged exposure of tumor cells to chemotherapeutic agents can generate cells resistant to agents that initially have antiproliferative or cell killing activity. […] Cells cultured for one month in the presence of BAR agonist were washed to remove drug and put into 384 well plates for 9×9 dose matrix combination screening with BAR agonists and dexamethasone.

Data set [3] concerns Human Multiple Myeloma Cells (MM.1S). Conditions: Salmeterol 0 μM (single agent), DEX (μM): 0.15, 0.076, 0.038, 0.019, 0.0096.
For data set [4] the test system is unchanged. The data set is described as follows: Anti-proliferation assay (ATPLite, 72 hours), MM.1S. In general terms: Cellular ATP, detected with luciferase, serves as a proxy for viable cell number.
Data set [5] relates to human multiple myeloma xenografts (MM1S). The data set can be described thus: MM.1S xenograft model in SCID mice. As to conditions: Dex 1 mg/kg or salmeterol 10 mg/kg, subcutaneous daily. Type of data set: in vivo, mouse. As to the method: The human multiple myeloma cell line MM1S was injected subcutaneously into the flanks of SCID mice. Five days following the injection of MM1S cells, animals were randomized into the following four treatment groups (n=6-7) based on tumor size.
Group 1—Vehicle (90% PBS+10% EtOH)
The prepared test, positive, and negative control substances were administered via subcutaneous injection daily for up to 85 Days. During the treatment period, tumor volume and animal body weights were measured 3 times per week (Monday, Wednesday and Friday). The animals were removed from the study if there was overall poor body condition, tumor volume above 3000 mm^3, body weight loss greater than or equal to 20% or ulcerated tumors.
The slope of the tumor volume growth of each animal was calculated from the initial study day until the day each animal was removed from the study. From these slopes the mean change in tumor volume per study day was calculated.

The subject of data set [6] is multiple myeloma tumor cells from patients. The data set can be described thus: MTT cell viability assay, multiple myeloma patient tumor cells. As to conditions: patient 1 tumor cells, 48 hours, MTT; Salmeterol 0 nM (single agent); DEX (μM): 4.0, 2.0, 1.0, 0.5, 0.25, 0.125, 0.0625. In general terms: Tetrazolium assays rely on reduction of a dye to a coloured formazan, in cell work by metabolically active cells.
Text: Tumor cells were obtained via bone marrow aspirates and affinity selected using CD138-linked magnetic beads.

The subject of data set [7] is Human Multiple Myeloma Cells (ANBL-6).
Data set [8] deals with Human Multiple Myeloma Cells (MM.1S). The data set can be described thus: cells. Conditions: MM1.S.

Several values for one entry are separate records, joined by “and”; a condition that tells them apart may be missing. Equal values may be shown once. Read-outs that look alike come from different tables or passages of the source.

Experimental for MM.1S cells: Forty eight hours later, the percent of cells positive for Annexin V and propidium iodide (PI) was determined using FACS (FIG. 5).

For `C[C@@H]1C[C@H]2[C@@H]3CCC4=CC(=O)C=C[C@]4(C)[C@@]3(F)[C@@H](O)C[C@]2(C)[C@@]1(O)C(=O)CO` [dexamethasone], the “Annexin V/PI+ cells” value amounted to 47% in the data set on MM.1S cells (cells exposed to salmeterol for one month, 8 nM dexamethasone, 48 hours); 65% in the data set on MM.1S cells (cells exposed to salmeterol for one month, 80 nM dexamethasone, 48 hours); 8% in the data set with MM.1S cells (control cells, 8 nM dexamethasone, 48 hours (FIG. 5)); 45% in the data set with MM.1S cells (control cells, 80 nM dexamethasone, 48 hours (FIG. 5)). Further, the inhibition in data set [1] amounted to 39%; in data set [7], 6.13%. For the same compound, in data set [2], the inhibition at […] is 51%. The “percent inhibition of cell proliferation” value is 26% in data set [3] (+10 ng/ml IL-6); 45% and 44% and 32% and 27% in data set [3] (no IL-6); 47% and 38% and 70% and 63% and 56% in data set [4] (Clenbuterol 0 μM (single agent), Dexamethasone (μM): 0.15, 0.076, 0.038, 0.019, 0.0095, no ICI 118,551); 75% in data set [4] (naïve MM.1S, Salbutamol 0 μM (single agent), DEX (μM) by row: r8 2.0, r9 0.666, r10 0.23, r11 0.074, r12 0.024, r13 0.0082, r14 0.00274, r15 0.0009). Moreover, the “study day by which all animals of the group were removed” value in [5] was not above 66 study day. In addition, in data set [6], the “Reduction in Cell Viability” value was 50% and 56% and 53% and 46% and 47%. For the same compound, the inhibition at 0.15 µM came out at 24% in data set [8] (read-out: inhibition of proliferation, 0.15 μM dexamethasone, 10 ng/ml IL-6 (Table 53)) and 52% in data set [8] (read-out: inhibition of proliferation, 0.15 μM dexamethasone, no IL-6 (Table 52)).
